Assay results as given in patent US20220380338A1, “CYCLOALKYL 3-OXOPIPERAZINE CARBOXAMIDES AND CYCLOHETEROALKYL 3-OXOPIPERAZINE CARBOXAMIDES AS NAV1.8 INHIBITORS” (Merck Sharp & Dohme LLC, priority 2021, published 2022).
pIC50: −log10 of the molar value.

target: T1, human NaV1.8 (Homo sapiens, UniProt Q9Y5Y9); assay: Nav1.8 Qube® Assay (automated 384-well patch-clamp, inhibition of sodium current); assay type: cell-based; details: human NaV1.8 channels stably expressed in HEK 293 cells, room temperature
T1 construct: expressed in transfected cells
T1 sequence (Q9Y5Y9 whole entry): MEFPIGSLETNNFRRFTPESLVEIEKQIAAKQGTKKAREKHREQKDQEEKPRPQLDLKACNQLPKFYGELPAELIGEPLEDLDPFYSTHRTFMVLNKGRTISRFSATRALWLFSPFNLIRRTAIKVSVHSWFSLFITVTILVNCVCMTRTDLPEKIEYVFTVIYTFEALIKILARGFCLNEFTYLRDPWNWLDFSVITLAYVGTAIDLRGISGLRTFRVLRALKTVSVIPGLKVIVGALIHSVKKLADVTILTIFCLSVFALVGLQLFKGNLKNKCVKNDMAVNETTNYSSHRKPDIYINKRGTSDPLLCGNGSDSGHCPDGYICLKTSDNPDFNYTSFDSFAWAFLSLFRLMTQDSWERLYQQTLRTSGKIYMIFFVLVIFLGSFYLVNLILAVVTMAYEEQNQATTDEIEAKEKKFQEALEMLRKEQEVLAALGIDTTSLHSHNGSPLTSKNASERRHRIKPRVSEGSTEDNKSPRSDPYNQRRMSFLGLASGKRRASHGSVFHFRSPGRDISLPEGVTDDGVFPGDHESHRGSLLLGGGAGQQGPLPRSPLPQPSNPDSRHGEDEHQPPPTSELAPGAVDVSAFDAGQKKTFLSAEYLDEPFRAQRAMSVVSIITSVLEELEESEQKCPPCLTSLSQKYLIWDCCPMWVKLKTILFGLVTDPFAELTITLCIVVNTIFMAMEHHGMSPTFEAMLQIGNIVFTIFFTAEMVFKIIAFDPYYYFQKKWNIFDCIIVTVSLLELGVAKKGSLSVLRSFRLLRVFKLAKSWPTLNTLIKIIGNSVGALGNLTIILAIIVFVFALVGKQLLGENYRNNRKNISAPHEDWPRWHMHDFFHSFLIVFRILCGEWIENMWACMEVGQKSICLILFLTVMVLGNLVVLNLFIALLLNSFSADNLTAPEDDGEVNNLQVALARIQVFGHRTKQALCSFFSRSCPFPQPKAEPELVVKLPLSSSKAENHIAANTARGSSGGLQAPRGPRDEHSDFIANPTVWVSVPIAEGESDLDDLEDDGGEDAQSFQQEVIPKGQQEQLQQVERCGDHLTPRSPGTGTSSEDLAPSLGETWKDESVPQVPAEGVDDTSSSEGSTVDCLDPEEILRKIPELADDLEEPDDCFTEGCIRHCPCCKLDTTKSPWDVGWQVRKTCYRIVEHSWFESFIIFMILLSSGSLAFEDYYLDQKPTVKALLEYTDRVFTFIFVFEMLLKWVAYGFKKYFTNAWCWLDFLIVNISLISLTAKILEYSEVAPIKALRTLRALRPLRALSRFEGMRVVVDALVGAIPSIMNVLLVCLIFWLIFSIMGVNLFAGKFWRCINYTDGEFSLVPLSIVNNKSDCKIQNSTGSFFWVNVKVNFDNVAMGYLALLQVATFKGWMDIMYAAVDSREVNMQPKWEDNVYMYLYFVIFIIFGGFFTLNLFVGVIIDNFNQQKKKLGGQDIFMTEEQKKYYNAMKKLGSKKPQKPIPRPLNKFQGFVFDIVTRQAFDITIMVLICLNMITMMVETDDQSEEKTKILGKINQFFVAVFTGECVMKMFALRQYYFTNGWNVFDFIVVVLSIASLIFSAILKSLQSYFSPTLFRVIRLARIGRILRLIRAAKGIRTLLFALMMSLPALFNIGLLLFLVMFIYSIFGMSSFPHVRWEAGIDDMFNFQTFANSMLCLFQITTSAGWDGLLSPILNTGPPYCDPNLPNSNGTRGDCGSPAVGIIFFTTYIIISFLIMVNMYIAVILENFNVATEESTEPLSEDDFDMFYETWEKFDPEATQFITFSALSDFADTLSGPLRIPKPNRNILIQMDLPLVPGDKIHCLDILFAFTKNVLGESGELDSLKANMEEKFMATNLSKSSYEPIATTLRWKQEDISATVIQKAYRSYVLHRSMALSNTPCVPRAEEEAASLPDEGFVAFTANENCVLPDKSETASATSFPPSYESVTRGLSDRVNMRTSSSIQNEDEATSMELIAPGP
Method in brief: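 Whole-cell voltage clamp at room temperature in HEK293 cells stably expressing NaV1.8; from −90 mV hold, 10 s 1 Hz train of 20 ms pulses to 10 mV with 980 ms repolarization to −67 mV. Peak currents of 1st and 10th pulses give resting and inactivated-state IC50s, Hill fit.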

pIC50 | Compound
6.47 | C[C@@H]1C(=O)NCCN1C(=O)NC(c1ccc(Cl)c(C(F)(F)F)n1)C1CCC(F)(F)CC1 (single isomer, unassigned) [Example 46A, (2R)-N-((R or S)-(5-chloro-6-(trifluoro-methyl)pyridin-2-yl)(4,4-difluoro-cyclohexyl)methyl)-2-methyl-3-oxo-piperazine-1-carboxamide]
7.63 | C[C@@H]1C(=O)NCCN1C(=O)NC(c1ccc(Cl)c(C(F)(F)F)n1)C1CCC(F)(F)CC1 (single isomer, unassigned) [Example 46B, (2R)-N-((S or R)-(5-chloro-6-(trifluoro-methyl)pyridin-2-yl)(4,4-difluoro-cyclohexyl)methyl)-2-methyl-3-oxo-piperazine-1-carboxamide]
7.94 | C[C@@H]1C(=O)NCCN1C(=O)NC(c1ccc(Cl)c(C(F)(F)F)n1)C1CC(C(F)(F)F)C1 (single isomer, unassigned) [Example 47A, (2R)—N—((R or S)-(5-chloro-6-(trifluoromethyl)pyridin-2-yl)(cis-3-(trifluoromethyl)-cyclobutyl)methyl)-2-methyl-3-oxopiperazine-1-carboxamide]
7.21 | C[C@@H]1C(=O)NCCN1C(=O)NC(c1ccc(Cl)c(C(F)(F)F)n1)C1CC(C(F)(F)F)C1 (single isomer, unassigned) [Example 47B, (2R)—N—((R or S)-(5-chloro-6-(trifluoromethyl)pyridin-2-yl)(trans-3-(trifluoromethyl)cyclobutyl)methyl)-2-methyl-3-oxopiperazine-1-carboxamide]
8.58 | C[C@@H]1C(=O)NCCN1C(=O)NC(c1ccc(Cl)c(C(F)(F)F)n1)C1CC(C(F)(F)F)C1 (single isomer, unassigned) [Example 47C, (2R)—N—((S or R)-(5-chloro-6-(trifluoromethyl)pyridin-2-yl)(trans-3-(trifluoromethyl)cyclobutyl)methyl)-2-methyl-3-oxopiperazine-1-carboxamide]
7.44 | C[C@@H]1C(=O)NCCN1C(=O)NC(c1ccc(Cl)c(C(F)(F)F)n1)C1CC(C(F)(F)F)C1 (single isomer, unassigned) [Example 47D, (2R)—N—((S or R)-(5-chloro-6-(trifluoromethyl)pyridin-2-yl)(cis-3-(trifluoromethyl)-cyclobutyl)methyl)-2-methyl-3-oxopiperazine-1-carboxamide]
5.36 | C[C@@H]1C(=O)NCCN1C(=O)NC(C)(c1ccc(F)c(Cl)c1)C1CC(C(F)(F)F)C1 (single isomer, unassigned) [Example 48A, (2R)—N—((R or S)-1-(3-chloro-4-fluorophenyl)-1-(cis-3-(trifluoromethyl)cyclobutyl)ethyl)-2-methyl-3-oxopiperazine-1-carboxamide]
6.04 | C[C@@H]1C(=O)NCCN1C(=O)NC(C)(c1ccc(F)c(Cl)c1)C1CC(C(F)(F)F)C1 (single isomer, unassigned) [Example 48B, (2R)—N—((R or S)-1-(3-chloro-4-fluorophenyl)-1-(trans-3-(trifluoromethyl)cyclobutyl)ethyl)-2-methyl-3-oxopiperazine-1-carboxamide]
6.51 | C[C@@H]1C(=O)NCCN1C(=O)NC(C)(c1ccc(F)c(Cl)c1)C1CC(C(F)(F)F)C1 (single isomer, unassigned) [Example 48C, (2R)—N—((S or R)-1-(3-chloro-4-fluorophenyl)-1-(cis-3-(trifluoromethyl)cyclobutyl)ethyl)-2-methyl-3-oxopiperazine-1-carboxamide]
6.29 | C[C@@H]1C(=O)NCCN1C(=O)NC(C)(c1ccc(F)c(Cl)c1)C1CC(C(F)(F)F)C1 (single isomer, unassigned) [Example 48D, (2R)—N—((S or R)-1-(3-chloro-4-fluorophenyl)-1-(trans-3-(trifluoromethyl)cyclobutyl)ethyl)-2-methyl-3-oxopiperazine-1-carboxamide]
8.35 | C[C@@H]1C(=O)NCCN1C(=O)NC(c1ccc(OC(F)(F)F)c(F)c1)[C@H]1C[C@H](C(F)(F)F)C1 (single isomer, unassigned) [Example 49A]
7.07 | C[C@@H]1C(=O)NCCN1C(=O)NC(c1ccc(OC(F)(F)F)c(F)c1)[C@H]1C[C@H](C(F)(F)F)C1 (single isomer, unassigned) [Example 49B]

More lines, now with the values behind:

Compound | pIC50
C[C@@H]1C(=O)NCCN1C(=O)NC(c1ccc(F)c(Cl)c1F)C1CC12CC2 (single isomer, unassigned) [Example 41C, (2R)-N-((R or S)-(3-chloro-2,4-difluoro-phenyl)(S or R)-spiro[2.2]pentan-1-yl)methyl)-2-methyl-3-oxopiperazine-1-carboxamide] | 6.84
C[C@@H]1C(=O)NCCN1C(=O)NC(c1ccc(F)c(Cl)c1F)C1CC12CC2 (single isomer, unassigned) [Example 41D, (2R)-N-((S or R)-(3-chloro-2,4-difluoro-phenyl)((S or R)-spiro[2.2]pentan-1-yl)methyl)-2-methyl-3-oxopiperazine-1-carboxamide] | 5.97
C[C@@H]1C(=O)NCCN1C(=O)NC(c1ccc(F)c(Cl)c1F)C1CCC(F)(F)C1 (single isomer, unassigned) [Example 42A, (2R)-N-((R or S)-(3-choro-2,4-difluoro-phenyl)((R or S)-3,3-difluorocyclopentyl)-methyl)-2-methyl-3-oxopiperazine-1-carboxamide] | 6.49
C[C@@H]1C(=O)NCCN1C(=O)NC(c1ccc(F)c(Cl)c1F)C1CCC(F)(F)C1 (single isomer, unassigned) [Example 42B, (2R)-N-((R or S)-(3-chloro-2,4-difluoro-phenyl)((S or R)-3,3-difluorocyclopentyl)-methyl)-2-methyl-3-oxopiperazine-1-carboxamide] | 5.55
C[C@@H]1C(=O)NCCN1C(=O)NC(c1ccc(F)c(Cl)c1F)C1CCC(F)(F)C1 (single isomer, unassigned) [Example 42C, (2R)-N-((S or R)-(3-chloro-2,4-difluoro-phenyl)((R or S)-(3,3-difluorocyclopentyl)-methyl)-2-methyl-3-oxopiperazine-1-carboxamide] | 7.62
C[C@@H]1C(=O)NCCN1C(=O)NC(c1ccc(F)c(Cl)c1F)C1CCC(F)(F)C1 (single isomer, unassigned) [Example 42D, (2R)-N-((S or R)-(3-chloro-2,4-difluoro-phenyl)((S or R)-3,3-difluorocyclopentyl)-methyl)-2-methyl-3-oxopiperazine-1-carboxamide] | 7.70
C[C@@H]1C(=O)NCCN1C(=O)NC(c1ccc(F)c(Cl)c1)C1CC(C(F)(F)F)C1 (single isomer, unassigned) [Example 43A, (2R)-N-((R or S)-(3-chloro-4-fluorophenyl)-(trans-3-(trifluoro-methyl)-cyclobutyl)-methyl)-2-methyl-3-oxopiperazine-1-carboxamide] | 7.40
C[C@@H]1C(=O)NCCN1C(=O)NC(c1ccc(F)c(Cl)c1)C1CC(C(F)(F)F)C1 (single isomer, unassigned) [Example 43B, (2R)-N-((R or S)-(3-chloro-4-fluorophenyl)-(cis-3-(trifluoromethyl)-cyclobutyl)methyl)-2-methyl-3-oxopiperazine-1-carboxamide] | 7.58
C[C@@H]1C(=O)NCCN1C(=O)NC(c1ccc(F)c(Cl)c1)C1CC(C(F)(F)F)C1 (single isomer, unassigned) [Example 43C, (2R)-N-((S or R)-(3-chloro-4-fluorophenyl)-(trans-3-(trifluoro-methyl)-cyclobutyl)-methyl)-2-methyl-3-oxopiperazine-1-carboxamide] | 8.49
C[C@@H]1C(=O)NCCN1C(=O)NC(c1ccc(F)c(Cl)c1)C1CC(C(F)(F)F)C1 (single isomer, unassigned) [Example 43D, (2R)-N-((S or R)-(3-chloro-4-fluorophenyl)-(cis-3-(trifluoromethyl)-cyclobutyl)methyl)-2-methyl-3-oxopiperazine-1-carboxamide] | 7.66
C[C@@H]1C(=O)NCCN1C(=O)NC(c1ccc(F)c(Cl)c1)C1CC(OCC(F)(F)F)C1 (single isomer, unassigned) [Example 44A, (2R)—N—((R or S)-(3-chloro-4-fluorophenyl)(cis-3-(2,2,2-trifluoroethoxy)cyclobutyl)methyl)-2-methyl-3-oxopiperazine-1-carboxamide] | 7.04
C[C@@H]1C(=O)NCCN1C(=O)NC(c1ccc(F)c(Cl)c1)C1CC(OCC(F)(F)F)C1 (single isomer, unassigned) [Example 44B, (2R)—N—((S or R)-(3-chloro-4-fluorophenyl)(cis-3-(2,2,2-trifluoroethoxy)cyclobutyl)methyl)-2-methyl-3-oxopiperazine-1-carboxamide] | 6.47
C[C@@H]1C(=O)NCCN1C(=O)NC(c1ccc(F)c(Cl)c1)C1CC(OCC(F)(F)F)C1 (single isomer, unassigned) [Example 44C, (2R)—N—((R or S)-(3-chloro-4-fluorophenyl)(trans-3-(2,2,2-trifluoroethoxy)cyclobutyl)methyl)-2-methyl-3-oxopiperazine-1-carboxamide] | 6.76
C[C@@H]1C(=O)NCCN1C(=O)NC(c1ccc(F)c(Cl)c1)C1CC(OCC(F)(F)F)C1 (single isomer, unassigned) [Example 44D, (2R)—N—((S or R)-(3-chloro-4-fluorophenyl)(trans-3-(2,2,2-trifluoroethoxy)cyclobutyl)methyl)-2-methyl-3-oxopiperazine-1-carboxamide] | 7.64
O=C1CN(C(=O)NC(c2ccc(Cl)c(C(F)(F)F)n2)C2CCC(C(F)(F)F)CC2)CCN1 (single isomer, unassigned) [Example 45A] | 6.55
O=C1CN(C(=O)NC(c2ccc(Cl)c(C(F)(F)F)n2)C2CCC(C(F)(F)F)CC2)CCN1 (single isomer, unassigned) [Example 45B] | 8.28
